Measured values as given in patent publication US20180243421A1, “IMMUNOSTIMULATING AGENT” (AJINOMOTO CO., INC., priority 2015, published 2018).

How the values were obtained:
Assay type in all cases: in vivo, BALB/c mice
[1] = tested on: anti-OVA-specific IgG1 subclass antibody; assay: Adjuvant activity: anti-OVA-specific IgG1 subclass antibody in serum after secondary immunization (Examples 12, 19, 20, 21); settings: Example 21; s.c.; SZ62 0.256 μmol in 5% αCD saline, CpG 5 μg, MPL 5 μg, Addavax 1:1, Alum; two weeks from secondary immunization
IFN-γ = assay: Th1 response: IFN-γ production from lymph node cells of immunized mice restimulated with OVA; settings: Example 10; s.c. OVA 10 μg + 0.256 μmol in 5% αCD saline (Addavax 1:1); groin lymph node ten days later; 0.1-100 μg OVA, 40 hr, ELISA
Protocol: (§1) Ten days later, groin lymph node was collected from all mice of the above-mentioned (1) to (4), lymph node cells were isolated and cultured in 10% FBS-containing RPMI1640 medium. Thereto was added 0.1 μg, 1 μg, 10 μg, 100 μg of OVA, respectively, 40 hr later, cell supernatant was recovered, and IFN-γ and IL-4 in the supernatant were measured by ELISA.

[2] = tested on: anti-OVA-specific IgG2a subclass antibody; assay: Adjuvant activity: anti-OVA-specific IgG2a subclass antibody in serum after secondary immunization
Protocol: Two weeks from the secondary immunization, the whole blood was extracted under anesthesia, and the obtained serum sample was measured for anti-OVA-specific IgG1 subclass antibody.
Measurement Method of anti-OVA-specific IgG2a Subclass Antibody
To a 96 well plate was added 5 μg/ml OVA at 100 μl/well, and the mixture was incubated at 4° C. overnight. After incubation, the mixture was washed three times with 200 μl of PBS-T (PBS+0.05%(v/v) Tween 20) per well, and blocked with 100 μl of 5% FCS/PBS solution per well at room temperature for 1 to 2 hr. Thereafter, the mixture was washed three times with PBS-T (200 μl/well), a diluted serum sample (100 μl/well) or the same amount of 5% FCS/PBS solution as a control was added, and the mixture was incubated at 37° C. for 1 hr. Thereafter, the mixture was washed five times with PBS-T (200 μl/well), a diluted biotinylated anti-mouse IgG2a antibody (100 μl/well) was added, and the mixture was incubated at 37° C. for 45 min. Thereafter, the mixture was washed five times with PBS-T (200 μl/well), a diluted anti-biotin-HRP antibody was added (100 μl/well), and the mixture was incubated at 37° C. for another 30 min. Thereafter, the mixture was washed five times with PBS-T (200 μl/well), TMB substrate solution was added (100 μl/well), and the mixture was incubated at room temperature for 10-15 min. Thereafter, a reaction quenching liquid (2N sulfuric acid solution) was added (50 μl/well) to discontinue a color developing reaction, and the absorbance (OD Value=450 nm) was measured by a microplate reader.
Measurement Method of Concentration of anti-OVA-specific IgG1 Subclass Antibody and anti-OVA-specific IgG2a Subclass Antibody
To a 96 well plate was added 5 μg/ml OVA at 100 μl/well, and the mixture was incubated at 4° C. overnight. After incubation, the mixture was washed three times with 200 μl of PBS-T (PBS+0.05% (v/v) Tween 20) per well, and blocked with 100 μl of 5% FCS/PBS solution per well at room temperature for 1 to for 2 hr. […] When an anti-OVA-specific IgG2a subclass antibody was measured, the standard of an anti-OVA-specific IgG2a subclass antibody was added at 50 ng/ml, 25 ng/ml, 12,5 ng/ml, 6.25 ng/ml, 3.125 ng/ml, 1.56 ng/ml, 0.781 ng/ml, 0.391 ng/ml, 0.195 ng/ml, 0.098 ng/ml, 0.049 ng/ml, 0 ng/ml, per 1 well. […] Thereafter, a reaction quenching liquid (2N sulfuric acid solution) was added (50 μl/well) to discontinue a color developing reaction, and the absorbance (OD Value=450 nm) was measured by a microplate reader. A standard curve was drawn from the measured OD values, and the concentration was calculated.

IL-4 = assay: Th2 response: IL-4 production from lymph node cells of immunized mice restimulated with OVA; settings: Example 10; s.c. OVA 10 μg + 0.256 μmol in 5% αCD saline (Addavax 1:1); groin lymph node ten days later; 0.1-100 μg OVA, 40 hr, ELISA
Protocol: as §1

[3] = Example 2, serum sample of Example 1

CCCCCCCCCCCCCCCC(=O)NC(=N)NCCCCN [SZ62, N-hexadecanoylagmatine]
anti-OVA-specific IgG1 subclass antibody production as compared to the OVA single administration group [1]: tended to increase | IFN-γ production from lymph node cells (IFN-γ): increased in an OVA volume dependent manner | adjuvant activity (IgG2a) compared with Alum [2, 3]: equivalent to that of Alum | anti-OVA-specific IgG2a subclass antibody production as compared to the OVA single administration group [2, 3]: significantly increased | anti-OVA-specific IgG2a subclass antibody production as compared to the OVA single administration group ([2]; Example 21, s.c., SZ62 0.256 μmol in 5% αCD saline, CpG 5 μg, MPL 5 μg, Addavax 1:1, Alum, two weeks from secondary immunization): tended to increase | IL-4 production from lymph node cells (IL-4): did not show an increase
